Test system: C57BL/6 female mice bearing allogeneic pregnancy sired by Balb/c males
Assay: Fetal wastage and in utero Lm invasion after virulent Lm (strain 10403s) prenatal infection, allogeneic pregnancy
Format: in vivo
Conditions: virulent Lm 10^4 CFU, ampicillin in drinking water

## CC1(C)S[C@@H]2[C@H](NC(=O)[C@H](N)c3ccccc3)C(=O)N2[C@H]1C(=O)O [ampicillin]
Treatment delayed until 24 hours post-infection
  benefits (protection against fetal wastage): uniformly dissipated
Treatment initiated 12 hours after infection
  protection against fetal wastage: near complete protection

— patent US20180022810A1, “USE OF CXCR3 INHIBITORS FOR PROTECTING AGAINST FETAL WASTAGE” (Children's Hospital Medical Center, priority 2015, published 2018)
